Assay results: article PMC4914250, “Cancer therapeutic approach based on conformational stabilization of mutant p53 protein by small peptides” (Oncotarget, 2016)

Assays:
[1] = test system: mutp53 in SK3 cell extract; assay: ELISA of mutp53 conformation, SK3; type: biochemical, human; conditions: score 0-6 compared to positive control
From the text: (§1) A total of close to 350 peptides, deduced from the phage sequences, were synthesized and subjected to several alternative complementary methods of semi high-throughput functional screening; we refer to these peptides as pCAPs (p53 conformation activating peptides). First, we used cell-free ELISA assays to evaluate the effect of individual peptides on mutp53 conformation and DNA binding in vitro. For conformation analysis (Figure 2A), microtiter plates were coated with PAb240, PAb1620 or PAb421 as control, then the effect of each peptide on reactivity of mutp53 with these antibodies was examined; WTp53 served as a positive control for PAb1620 reactivity.
(§2) 96-well plates were coated using 3 different anti p53 monoclonal antibodies, PAb421, PAb240 and PAb1620. Wells were incubated overnight (ON) with 100μl Ab (5μg/ml) in room temp (RT). The liquid was discarded, and the wells were washed 3 times with PBS, 200 μl. Next, blocking with 5% BSA in PBS for 2 hours (RT) was performed, followed by 3 washes in PBS. Samples of mutant and WT p53 proteins (100 μl, 10 μg/ml), together with control peptides or with test peptides 1-326 (5μg /ml), were incubated for 1.5 hours, and then added to the wells for1 hour at RT. 4 washes with PBST were performed. Next, HRP conjugated αp53 antibody (10μg/ml HAF1355 (R&D)) were added to the wells and incubated at RT for 1 hour. Plates were washed 3 times in PBST and TMB substrate solution (50μl each well, Thermo, (Cat. No. ES001-1L-K)) was added and incubated at 37°C for 20 min. The reaction was stopped with 2M Sulfuric acid (50μl). The absorbance was measured at 450 nm with a spectrophotometer. Protein concentration was determined by dividing the absorb an each sample to by the absorbance of PAb421 samples.

[2] = test system: H1299 cells expressing mutp53^R175H; assay: Crystal violet viability assay, H1299; type: cell-based; conditions: score 0-6 compared to positive control, 48 h
Method: Cell extracts were added to ELISA plates coated with the indicated antibodies to allow mutp53 to react with the peptides and antibodies. αp53-HRP Ab was used for assessment of p53 levels. Numbers represent ratio of absorbance between the PAb1620 and PAb240 samples. All reads were normalized to the control PAb241 reading of each extract. MCF7 (WTp53) and H1299-mutp53^A135V (tsp53) cells were used as positive controls for the WTp53 conformation (1620/240 ratio equals or exceeds 5:1). […] 96 well plates were coated with anti-p53 antibody, cell extracts containing p53 were reacted with oligonucleotides that contain a p53RE consensus binding site, labeled with biotin, in the presence or absence (NT) of test peptides. Streptavidin-HRP is used to quantify the amount of oligos in the well. TMB assay was performed to determine bound mutp53 levels (450nm). MCF7 and the H1299-mutp53^A135V(TS) cells serve as positive controls for WTp53. C.and D. - Bar graphs illustrating the effect of various selected peptides on mut-p53 dependent expression on cell viability. […] D, ES2 cells expressing endogenous mutp53 (blue bars) and ES2 cells knocked out for p53 by CRISPR construct (light blue bars). Cell lines were treated with selected peptides, Cis-platinum was used as positive control for cell death. 48 hours after treatment, cells were washed with PBS, and the remaining attached cells were stained with Crystal violet and washed 4 times with PBS. Stained cells were dissolved in 10% acetic acid and plates were taken for optical density measurement at 595nM.
This simple assay measures the total number of cells, thus reflecting the combination of both cell death and growth arrest effects. […] After 48 hours of treatment cells were stained with crystal violet and OD at 595nm was determined.
Values on the Y-axis reflect the number of cells in the treated wells, normalized to the non-treated samples (NT; red bars).

mutp53 = assay: Summary score of peptide functional screens; conditions: overall score over conformation, DNA binding, viability and PCR screens
HOP62 = assay: Crystal violet viability assay, HOP62; type: cell-based, human; conditions: score 0-6 compared to positive control, 48 h
From the text: (§3) We also performed a similar analysis on ES2 ovarian cancer cells, which express endogenous mp53^S241F, compared to ES2 cells in which p53 was stably knocked out using CRISPR/Cas9 (ES2 p53KO Figure S1F), to control for specificity for mutp53 (Figure 2D). In ES2 cells, too, some of the peptides caused a significant reduction in cell numbers, more prominent in the mutp53 expressing cells than in their p53KO counterparts. […] Overall, we performed this analysis on several different mutp53-expressing human cancer cell lines, and the results are summarized in Table S3. Based on this comprehensive picture, we reduced the number of most promising candidate lead peptides to 30. These peptides were then synthesized with an 8 arginine C-terminal tail for enhanced delivery across cell membranes (pCAPs 130-160); for clarity, peptides are referred to by their original number, with an R for poly arginine (see Table S3).
(§4) Cells were cultured in 96 wells plates with 2500-4000 cells/well. Serial dilutions of different peptides were added and the plates incubated for additional 48 h at 37°C. Then medium was removed and cell viability was determined by staining the cells with crystal violet (0.05%) in methanol/PBS (1:5, v/v), for 10 min, followed by 3 washes with PBS. 10% acetic acid was added to each well for 10 min. OD was determined at 595 nm.

[3] = test system: mutp53 in BT549 cell extract; assay: ELISA of mutp53 conformation, BT549; type: biochemical, human; conditions: score 0-6 compared to positive control
From the text: as §1, §2

SK3 = assay: Crystal violet viability assay, SK3; type: cell-based, human; conditions: score 0-6 compared to positive control, 48 h
From the text: as §3, §4

ES2 ovarian cancer cells = assay: Crystal violet viability assay, ES2; type: cell-based, human; conditions: score 0-6 compared to positive control, 48 h
Method: (§5) Cell extracts were added to ELISA plates coated with the indicated antibodies to allow mutp53 to react with the peptides and antibodies. αp53-HRP Ab was used for assessment of p53 levels. Numbers represent ratio of absorbance between the PAb1620 and PAb240 samples. All reads were normalized to the control […] reading of each extract. MCF7 (WTp53) and H1299-mutp53^A135V (tsp53) cells were used as positive controls for the WTp53 conformation (1620/240 ratio equals or exceeds 5:1). […] 96 well plates were coated with anti-p53 antibody, cell extracts containing p53 were reacted with oligonucleotides that contain a p53RE consensus binding site, labeled with biotin, in the presence or absence (NT) of test peptides. Streptavidin-HRP is used to quantify the amount of oligos in the well. TMB assay was performed to determine bound mutp53 levels (450nm). MCF7 and the H1299-mutp53^A135V(TS) cells serve as positive controls for WTp53. C.and D. - Bar graphs illustrating the effect of various selected peptides on mut-p53 dependent expression on cell viability. […] D, ES2 cells expressing endogenous mutp53 (blue bars) and ES2 cells knocked out for p53 by CRISPR construct (light blue bars). Cell lines were treated with selected peptides, Cis-platinum was used as positive control for cell death. 48 hours after treatment, cells were washed with PBS, and the remaining attached cells were stained with Crystal violet and washed 4 times with PBS. Stained cells were dissolved in 10% acetic acid and plates were taken for optical density measurement at […]. TEXT PRINTED IN THE PICTURE: (A) pCAP1: 0.87 | (A) pCAP2: 0.53 | (A) pCAP3: 0.59 | (A) pCAP4: 0.59 | (A) pCAP5: 0.60 | (A) pCAP6: 0.75 | (A) pCAP23: 1.06 | (A) pCAP24: 1.44 | (A) pCAP36: 1.25 | (A) pCAP47: 1.54 | (A) pCAP54: 1.54 | (A) pCAP60: 2.73 | (A) pCAP68: 2.22 | (A) pCAP83: 1.56 | (A) pCAP97: 2.45 DOUBTS OF THE COPYIST ABOUT THIS PICTURE: Panel A: the numbers over the bars are printed very small, rotated and blurred, so 3, 5, 6, 8 and 9 cannot be told apart with certainty. All values are best readings: pCAP1 0.87, pCAP2 0.53, pCAP3 0.59, pCAP4 0.59, pCAP5 0.60, pCAP6 0.75, pCAP23 1.06, pCAP24 1.44, pCAP36 1.25, pCAP47 1.54, pCAP54 1.54, pCAP60 2.73, pCAP68 2.22, pCAP83 1.56, pCAP97 2.45 / Panel A: the picture prints no measure with the numbers over the bars, so they are given as bare numbers / Panel A: numbers are also printed over the controls, which are not substances and are left out of lines. Best readings: NT 0.60, 60° 30'' 0.48, 60° 1' 0.37, 60° 3' 0.13, 60° 10' 0.05, MCF7 3.32, H1299TS 3.25
as §3, §4

mutp53^R175H [4] = assay: ELISA of mutp53 DNA binding (p53RE oligonucleotide), H1299-p53^R175H cell extract; type: biochemical, human; conditions: score 0-6 compared to positive control; mutp53 DNA binding
Method: as §5
(§6) Next, we assessed the ability of our selected peptides to restore sequence-specific DNA binding to mutp53. To that end we employed an ELISA kit (R&D) in which cell extracts containing p53 are reacted with a biotinylated p53RE oligonucleotide and then incubated in wells coated with anti-p53 antibody, which is expected to trap the p53 protein and its associated p53RE DNA. The amount of p53RE retained in each well via p53 binding is quantified by incubation with streptavidin-HRP. […] Again, extracts of MCF7 and H1299-tsp53^A135V cells served as positive controls for WTp53 DNA binding activity. […] Importantly, there was substantial overlap between the peptides that stabilized the WT conformation (Figure 2A) and those that increased specific DNA binding (Figure 2B), further reinforcing the conclusion that those peptides stabilize mutp53 in a functional state. This was not seen with the randomly selected peptides 1-6 (black bars).
For these experiments, a commercial p53/DNA binding kit of “R&D” (Cat-DYC1355-5 Lot-1273366FA) was used, in accordance with manufacturer guide lines. Briefly, 96 well plates we coated with anti-p53 antibody overnight. Cell extracts containing p53 are reacted with an oligonucleotide that contains a p53 consensus binding site (provided in the kit), labeled with Biotin, in the presence or absence (NT) of test peptides. […]

[5] = test system: mutp53 in SK3 cell extract; assay: ELISA of mutp53 DNA binding (p53RE oligonucleotide), SK3; type: biochemical, human; conditions: score 0-6 compared to positive control
Method: as §6
For these experiments, a commercial p53/DNA binding kit of “R&D” (Cat-DYC1355-5 Lot-1273366FA) was used, in accordance with manufacturer guide lines. Briefly, 96 well plates we coated with anti-p53 antibody overnight. Cell extracts containing p53 are reacted with an oligonucleotide that contains a p53 consensus binding site (provided in the kit), labeled with Biotin, in the presence or absence (NT) of test peptides. WT p53 is expected to bind this DNA binding site as well as to the antibody coating the test wells of the plate. Excess p53 and oligos were washed away and streptavidin-HRP was used to quantify the amount of oligos in the well, which is proportional to the DNA bound by p53. TMB assay was performed to determine HRP (ES001-1L-K) levels (450nm).

mutp53^R175H [6] = assay: ELISA of mutp53 conformation (PAb1620/PAb240), H1299-p53^R175H cell extract; type: biochemical, human; conditions: score 0-6 compared to positive control; mutp53 conformation
From the text: as §1, §5
Extracts were prepared at a concentration of 750ng/μl and then reacted for 2 hours with different peptides. Plates coated with the different antibodies were then washed and blocked, and extracts pre-incubated either with or without peptides were added for two additional hours. After removal of extracts, plates were washed and incubated with HRP-conjugated anti-p53 antibody. Finally, HRP activity was quantified by optical density at 450nm. MCF7 cells (expressing WTp53) and H1299-tsp53^A135V cells, stably expressing a temperature sensitive p53 mutant that has mutant conformation at 37°C but WT conformation at 32°C [31], were used as positive controls for the WTp53 conformation (1620/240 ratio 5:1). […]

EP156 = assay: Crystal violet viability assay, EP156; type: cell-based; conditions: score 0-6 compared to positive control, 48 h
From the text: as §3, §4

WI38 = assay: Crystal violet viability assay, WI38; type: cell-based; conditions: score 0-6 compared to positive control, 48 h
Method: as §4

Substance | Viability H1299 [2] | SCORE (mutp53) | Viability HOP62 (HOP62) | Conform BT549 [3] | DNA H1299 (mutp53^R175H [4]) | further results
DEDAKFRIRILMRR [pCAP-202, peptide with similarity to APAF1] | 3 | 13 | 2 | 3 |  | Conform SK3 [1]: 2; Viability SK3 (SK3): 3
EHDFEVRGDVVNGRNHQPK [pCAP-4, randomly selected peptide used as inert comparison] |  | 2 |  |  |  | Viability ES2 (ES2 ovarian cancer cells): 2
FPGHTIH [pCAP-100] | 3 | 19 |  | 1 | 3 | Conform SK3 [1]: 3; DNA SK3 [5]: 3
FWTQSIKERKMLNEHDFER [pCAP-3, randomly selected peptide used as inert comparison] | 1 | 4 | 2 |  |  | 
LEVIYMI [pCAP-5, randomly selected peptide used as inert comparison] |  | 2 |  |  |  | 
LGIDEDEETETAPE [pCAP-6, randomly selected peptide used as inert comparison] |  | 4 | 2 |  |  | 
LPNPPERHH [pCAP-16] | 3 | 22 | 3 |  | 3 | Conform H1299 (mutp53^R175H [6]): 2; DNA SK3 [5]: 3; Viability EP156 (EP156): 4
SPLQTPAAPGAAAGPALSPV [pCAP-7, synthesized peptide of the functional screen] |  | 3 |  |  | 1 | Viability WI38 (WI38): 2
VWVHDSCHANLQNYRNYLP [pCAP-2, randomly selected peptide used as inert comparison] |  | 2 |  |  |  | 
myr-HSSHHHPTVQHRR [pCAP-257, myristoylated peptide, similarity to SIN3A] |  | 16 | 3 | 3 | 3 | Viability EP156 (EP156): 4; Viability SK3 (SK3): 3
